# Experimental data taken from paper PMC10190190 (Journal of Enzyme Inhibition and Medicinal Chemistry, 2023).
# Experiments:
# Format in all cases: biochemical
# HDAC9 = HDAC9 (Homo sapiens, UniProt Q9UKV0); assay: HDAC activity assay, HDAC9
# HDAC7 = target: T1, HDAC7 (Homo sapiens, UniProt Q8WUI4); assay: HDAC activity assay, HDAC7
# T1 sequence (Q8WUI4 1-952): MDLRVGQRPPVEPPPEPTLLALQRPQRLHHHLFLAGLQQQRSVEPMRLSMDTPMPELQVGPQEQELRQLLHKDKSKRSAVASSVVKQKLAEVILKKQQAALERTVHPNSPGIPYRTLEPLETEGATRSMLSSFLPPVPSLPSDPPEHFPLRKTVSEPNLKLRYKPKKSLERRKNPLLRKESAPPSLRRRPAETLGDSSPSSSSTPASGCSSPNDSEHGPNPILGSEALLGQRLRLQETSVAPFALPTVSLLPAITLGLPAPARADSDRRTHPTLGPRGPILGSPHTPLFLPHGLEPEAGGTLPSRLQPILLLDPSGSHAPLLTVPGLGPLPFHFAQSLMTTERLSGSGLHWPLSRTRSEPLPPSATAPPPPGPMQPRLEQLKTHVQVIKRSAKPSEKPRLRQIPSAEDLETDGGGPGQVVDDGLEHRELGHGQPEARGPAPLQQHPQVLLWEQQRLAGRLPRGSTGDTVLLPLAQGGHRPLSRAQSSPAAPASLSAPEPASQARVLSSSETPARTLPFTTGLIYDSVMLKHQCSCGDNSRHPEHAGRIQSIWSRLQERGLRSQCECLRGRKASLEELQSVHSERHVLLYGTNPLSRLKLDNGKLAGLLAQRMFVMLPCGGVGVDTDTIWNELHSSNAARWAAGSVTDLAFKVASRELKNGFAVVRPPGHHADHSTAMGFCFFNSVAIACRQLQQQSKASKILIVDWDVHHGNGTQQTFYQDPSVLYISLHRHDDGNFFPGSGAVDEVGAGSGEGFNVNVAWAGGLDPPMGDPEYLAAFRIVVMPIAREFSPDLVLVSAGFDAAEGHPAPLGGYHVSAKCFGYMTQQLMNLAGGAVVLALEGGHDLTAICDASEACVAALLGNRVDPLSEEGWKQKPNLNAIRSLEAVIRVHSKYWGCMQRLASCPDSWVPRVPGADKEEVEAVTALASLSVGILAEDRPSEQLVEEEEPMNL
# HDAC6 = target: T2, HDAC6 (Homo sapiens, UniProt Q9UBN7); assay: HDAC activity assay, HDAC6
# T2 sequence (Q9UBN7 1-1215): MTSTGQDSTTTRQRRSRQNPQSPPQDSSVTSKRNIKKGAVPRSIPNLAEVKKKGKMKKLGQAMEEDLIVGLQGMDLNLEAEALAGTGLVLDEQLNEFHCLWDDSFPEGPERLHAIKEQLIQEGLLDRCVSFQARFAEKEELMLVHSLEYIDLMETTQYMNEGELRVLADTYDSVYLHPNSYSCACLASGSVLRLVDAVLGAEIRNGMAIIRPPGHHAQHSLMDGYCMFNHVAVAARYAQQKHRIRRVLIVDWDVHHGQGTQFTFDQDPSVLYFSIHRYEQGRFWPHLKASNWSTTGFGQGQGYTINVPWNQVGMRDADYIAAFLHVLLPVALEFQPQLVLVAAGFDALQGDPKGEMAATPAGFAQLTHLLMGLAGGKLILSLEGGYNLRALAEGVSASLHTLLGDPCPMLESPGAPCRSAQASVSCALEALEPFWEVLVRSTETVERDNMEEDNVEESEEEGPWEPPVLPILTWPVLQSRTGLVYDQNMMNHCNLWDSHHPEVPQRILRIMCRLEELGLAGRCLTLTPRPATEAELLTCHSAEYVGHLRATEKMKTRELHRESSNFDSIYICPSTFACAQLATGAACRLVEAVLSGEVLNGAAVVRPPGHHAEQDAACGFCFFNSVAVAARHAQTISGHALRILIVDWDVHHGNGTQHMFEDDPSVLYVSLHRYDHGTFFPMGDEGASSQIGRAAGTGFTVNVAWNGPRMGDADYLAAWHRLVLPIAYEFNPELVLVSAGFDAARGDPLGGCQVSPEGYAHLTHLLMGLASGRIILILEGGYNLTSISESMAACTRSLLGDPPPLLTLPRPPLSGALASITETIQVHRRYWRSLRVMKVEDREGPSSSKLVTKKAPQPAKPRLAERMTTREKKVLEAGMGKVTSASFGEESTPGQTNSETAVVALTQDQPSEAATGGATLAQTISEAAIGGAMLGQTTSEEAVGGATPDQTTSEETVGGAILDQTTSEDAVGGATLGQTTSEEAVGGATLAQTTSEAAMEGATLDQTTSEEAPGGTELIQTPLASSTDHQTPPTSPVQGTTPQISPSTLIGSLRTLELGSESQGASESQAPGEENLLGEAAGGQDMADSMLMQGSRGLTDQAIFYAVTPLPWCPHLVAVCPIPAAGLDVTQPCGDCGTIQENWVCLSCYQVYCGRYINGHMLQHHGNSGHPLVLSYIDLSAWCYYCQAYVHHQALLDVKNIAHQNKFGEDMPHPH
# HDAC4 = HDAC4 (Homo sapiens, UniProt P56524); assay: HDAC activity assay, HDAC4
# Sequence of HDAC4 (P56524 whole entry, species assumed): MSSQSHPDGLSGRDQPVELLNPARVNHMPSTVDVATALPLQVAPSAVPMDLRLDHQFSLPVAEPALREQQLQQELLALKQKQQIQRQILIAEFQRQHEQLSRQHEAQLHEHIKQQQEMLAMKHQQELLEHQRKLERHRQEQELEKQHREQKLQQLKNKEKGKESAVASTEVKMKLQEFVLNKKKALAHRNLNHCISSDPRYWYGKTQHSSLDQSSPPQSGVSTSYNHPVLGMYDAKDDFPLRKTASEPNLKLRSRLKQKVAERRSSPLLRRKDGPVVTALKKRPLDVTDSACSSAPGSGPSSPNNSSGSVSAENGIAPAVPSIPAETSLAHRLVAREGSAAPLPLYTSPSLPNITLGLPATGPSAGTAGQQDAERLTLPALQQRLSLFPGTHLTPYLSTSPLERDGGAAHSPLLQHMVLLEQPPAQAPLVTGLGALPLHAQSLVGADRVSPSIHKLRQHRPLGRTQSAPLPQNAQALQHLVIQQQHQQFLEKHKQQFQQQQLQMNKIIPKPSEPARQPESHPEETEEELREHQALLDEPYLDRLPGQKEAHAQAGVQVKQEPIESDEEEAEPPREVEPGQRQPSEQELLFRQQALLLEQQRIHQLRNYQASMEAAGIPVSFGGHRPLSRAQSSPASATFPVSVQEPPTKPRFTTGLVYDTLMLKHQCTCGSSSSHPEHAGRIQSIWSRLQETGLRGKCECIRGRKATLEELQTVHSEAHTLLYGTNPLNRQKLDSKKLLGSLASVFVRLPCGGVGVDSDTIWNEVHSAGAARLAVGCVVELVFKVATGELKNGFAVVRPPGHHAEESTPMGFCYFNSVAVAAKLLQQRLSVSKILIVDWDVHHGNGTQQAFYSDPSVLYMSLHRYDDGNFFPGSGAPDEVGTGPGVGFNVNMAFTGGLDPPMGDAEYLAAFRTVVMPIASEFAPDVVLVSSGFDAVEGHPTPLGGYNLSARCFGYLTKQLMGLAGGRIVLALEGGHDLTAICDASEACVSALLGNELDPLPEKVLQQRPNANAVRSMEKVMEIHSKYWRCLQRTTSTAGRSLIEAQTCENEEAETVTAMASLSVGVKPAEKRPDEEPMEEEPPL
# Sequence of HDAC9 (Q9UKV0 whole entry): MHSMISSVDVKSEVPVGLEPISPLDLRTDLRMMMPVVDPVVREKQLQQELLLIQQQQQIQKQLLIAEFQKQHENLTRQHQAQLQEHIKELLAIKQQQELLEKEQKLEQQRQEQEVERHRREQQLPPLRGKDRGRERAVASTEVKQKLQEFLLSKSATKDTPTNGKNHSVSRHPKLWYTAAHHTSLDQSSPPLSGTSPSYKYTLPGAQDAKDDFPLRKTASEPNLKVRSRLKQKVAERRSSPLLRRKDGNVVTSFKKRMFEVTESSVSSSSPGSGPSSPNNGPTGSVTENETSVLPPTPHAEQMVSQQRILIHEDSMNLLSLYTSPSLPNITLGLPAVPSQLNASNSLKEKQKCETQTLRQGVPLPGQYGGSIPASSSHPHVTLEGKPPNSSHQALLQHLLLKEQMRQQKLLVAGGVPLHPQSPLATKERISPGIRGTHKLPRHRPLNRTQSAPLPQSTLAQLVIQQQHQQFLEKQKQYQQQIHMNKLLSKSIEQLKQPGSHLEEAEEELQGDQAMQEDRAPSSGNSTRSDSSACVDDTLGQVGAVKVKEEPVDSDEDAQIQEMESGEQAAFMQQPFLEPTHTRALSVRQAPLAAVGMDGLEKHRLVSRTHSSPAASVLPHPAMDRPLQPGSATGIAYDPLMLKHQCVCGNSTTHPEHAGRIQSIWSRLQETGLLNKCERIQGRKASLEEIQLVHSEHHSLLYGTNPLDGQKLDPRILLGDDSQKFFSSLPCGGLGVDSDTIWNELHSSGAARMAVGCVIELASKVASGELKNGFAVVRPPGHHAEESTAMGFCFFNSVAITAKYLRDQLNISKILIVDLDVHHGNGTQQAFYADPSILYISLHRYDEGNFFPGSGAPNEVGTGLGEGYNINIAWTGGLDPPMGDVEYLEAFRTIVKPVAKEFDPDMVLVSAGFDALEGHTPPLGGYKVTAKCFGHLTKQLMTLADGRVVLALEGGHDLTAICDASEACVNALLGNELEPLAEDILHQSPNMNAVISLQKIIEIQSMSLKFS
SMILES,IC50 (HDAC9) [nM],IC50 (HDAC7) [nM],IC50 (HDAC6) [nM],IC50 (HDAC4) [nM]
"O=C(NO)c1ccc(CN2c3ccccc3Oc3ccc(C(=O)Nc4ccccc4)cc32)cc1 [Compound 12b, N-Hydroxy-4-[(2-phenylcarbamoylphenoxazin-10-yl)methyl]benzamide]",3490 ± 700,2260 ± 10,46 ± 2,3660 ± 220
"N#Cc1ccc2c(c1)Oc1ccccc1N2Cc1ccc(C(=O)NO)cc1 [Compound 16, N-Hydroxy-4-[(3-cyano-10H-phenoxazin-10-yl)methyl]benzamide]",4080 ± 200,1220 ± 320,20,3230 ± 590
"NC(=O)c1ccc2c(c1)Oc1ccccc1N2Cc1ccc(C(=O)NO)cc1 [Compound 7e, N-Hydroxy-4-[(3-carbamoyl-10H-phenoxazin-10-yl)methyl]benzamide]",1040 ± 200,520 ± 10,8,1410 ± 180
"O=C(NO)c1ccc(CN2c3ccccc3Oc3cc(Br)ccc32)cc1 [Compound 18, N-Hydroxy-4-[(3-bromo-10H-phenoxazin-10-yl)methyl]benzamide]",1560 ± 190,1750 ± 10,15,3180 ± 330
"O=C(NO)c1ccc(CN2c3ccccc3Oc3cc(-c4ccccc4)ccc32)cc1 [Compound 20, N-Hydroxy-4-[(3-phenyl-10H-phenoxazin-10-yl)methyl]benzamide]",6320 ± 2060,5120 ± 20,23 ± 3,8060 ± 210
"O=C(NO)c1ccc(CN2c3ccccc3Oc3cc(C(=O)Nc4ccc(C(=O)c5ccccc5)cc4)ccc32)cc1 [Compound 12c, N-Hydroxy-4-{[3–(4-benzoylphenyl)carbamoyl-phenoxazin-10-yl]methyl}benzamide]",15200 ± 500,460 ± 20,74.8 ± 2,2070 ± 140
"O=C(NO)c1ccc(CN2c3ccccc3Oc3ccccc32)cc1 [Compound 7a, N-Hydroxy-4-[(10H-phenoxazin-10-yl)methyl]benzamide]",2200 ± 10,790 ± 30,17 ± 3,4320 ± 110
"O=C(NO)c1ccc(CN2c3ccccc3Oc3cc(C(=O)Nc4ccccc4)ccc32)cc1 [Compound 12d, N-Hydroxy-4-[(3-phenylcarbamoylphenoxazin-10-yl)methyl]benzamide]",3640 ± 60,1580 ± 300,43.1 ± 3,2940 ± 520
